Read-outs that look alike come from different tables or passages of the source.
Experiments:
[1] = system: Vero cells (mammalian kidney fibroblasts); assay: in vitro; format: cell-based; conditions: highest concentration tested […]
[2] = system: P. falciparum W2 (chloroquine resistant) strain; assay: microbe, parasite or virus in culture; format: cell-based, Plasmodium falciparum; conditions: for Chloroquine-Resistant (W2)-Strain S. I.: selectivity index = IC50 for cytotoxicity (Vero)/IC50 for antiplasmodial activity; for IC50: Plasmodium falciparum
[3] = system: P. falciparum D6 (chloroquine sensitive) strain; assay: microbe, parasite or virus in culture; format: cell-based, Plasmodium falciparum; conditions: for Chloroquine-Sensitive (D6)-Strain S. I.: selectivity index = IC50 for cytotoxicity (Vero)/IC50 for antiplasmodial activity; for IC50: Plasmodium falciparum
[4] = system: P. berghei (NK-65 strain); assay: In vivo antimalarial assay in mice infected with P. berghei; parameters: species or system mice (Swiss Webster); conditions: for Day of Death (post infection): one value per animal; for % Parasitemia Suppression Day 5 / % Parasitemia Suppression Day 7: vehicle control = 100% parasitemia, < 80% non-significant
Method: The protocol for in vivo antimalarial evaluation was approved by the University of Mississippi Institutional Animal Care and Use Committee (IACUC). The in vivo antimalarial activity was determined in mice infected with P. berghei (NK-65 strain). Male mice (Swiss Webster strain) weighing 18-20 g were intraperitoneally inoculated with 2 × 10^7 parasitized red blood cells obtained from a highly infected donor mouse. Mice were divided into different groups with five mice in each group. Compound stocks were prepared in DMSO and administered orally to the mice through gavage two hours after the infection (day 0). The animals were treated once daily for consecutive days (day 0 to 2) and were closely observed for at least 2 h after every dose for any apparent signs of toxicity. Blood smears were prepared on different days starting from 5 days post infection (through 28 days) by clipping the tail end, stained with Giemsa, and the slides were observed under microscope for determination of parasitemia. Mice without parasitemia through day 28 postinfection were considered as cured. Also, suppression in development of parasitemia was computed by comparing the parasitemia in the control vehicle treated group and groups treated with compound. The mean survival time was also computed for control and treated groups. The results are presented as parasitemia suppression of day 5 post treatment, mean survival time of mice in each group, cure and survival graphs computed by Prism 6.0. (San Diego, CA, USA).

[5] = in vitro; format: cell-based; conditions: African green monkey
[6] = system: lettuce (Lactuca sativa cv. L., Iceberg); assay: In vitro phytotoxicity assay, lettuce; conditions: 1 mg/mL; 10% acetone; scale of 0 to 5, 0 = no effect, 5 = no growth
Method: (§1) Herbicidal or phytotoxic activity of the extract and compounds was performed according to the published procedure using bentgrass (Agrostis stolonifera) and lettuce (Lactuca sativa cv. L., Iceberg), in 24-well plates. Phytotoxicity was ranked visually. The ranking of phytotoxic activity was based on a scale of 0 to 5 with 0 showing no effect and 5 no growth.

[7] = system: bentgrass (Agrostis stolonifera); assay: In vitro phytotoxicity assay, bentgrass; conditions: 1 mg/mL; 10% acetone; scale of 0 to 5, 0 = no effect, 5 = no growth
Method: as §1

[8] = in vitro; format: cell-based, pig; conditions: pig; concentration causing 50% growth inhibition; read-out: Cytotoxic activity IC50, LLC-PK11
Method: (§2) In vitro cytotoxicity was determined against a panel of mammalian cells that included kidney fibroblast (Vero), kidney epithelial (LLC-PK11), malignant melanoma (SK-MEL), oral epidermal carcinoma (KB), breast ductal carcinoma (BT-549), and ovary carcinoma (SK-OV-3) cells Doxorubicin was used as a positive control.

[9] = in vitro; format: cell-based, human; conditions: human, concentration causing 50% growth inhibition
Method: as §2

[10] = intraperitoneal, subcutaneous, or intravenous injections up to 100 mg/kg/day; cited from earlier work
[11] = system: LLC-PK11 (pig kidney epithelial); assay: in vitro; format: cell-based; conditions: concentration causing 50% growth inhibition; read-out: Cytotoxic activity IC50, LLC-PK11
Method: as §2

[12] = system: SK-OV-3 (human ovary carcinoma); assay: in vitro; format: cell-based; conditions: concentration causing 50% growth inhibition; read-out: Cytotoxic activity IC50, SK-OV-3
Method: as §2

[13] = system: KB (human epidermal carcinoma); assay: in vitro; format: cell-based; conditions: concentration causing 50% growth inhibition; read-out: Cytotoxic activity IC50, KB
Method: as §2

[14] = system: BT-549 (human breast carcinoma, ductal); assay: in vitro; format: cell-based; conditions: concentration causing 50% growth inhibition; read-out: Cytotoxic activity IC50, BT-549
Method: as §2

[15] = system: SK-MEL (human malignant melanoma); assay: in vitro; format: cell-based; conditions: concentration causing 50% growth inhibition; read-out: Cytotoxic activity IC50, SK-MEL
Method: as §2

[16] = W2, read-out: Chloroquine-Resistant (W2)-Strain IC50
[17] = W2, read-out: Chloroquine-Resistant (W2)-Strain IC50 (ng/mL)
[18] = PO, 100 mg/kg × 3 days, P. berghei
[19] = highest concentration tested […], read-out: Cytotoxicity to Vero Cells IC50
[20] = read-out: Cytotoxicity to Vero cells
[21] = read-out: Cytotoxic activity IC50, BT-549
[22] = read-out: Cytotoxic activity IC50, KB
[23] = read-out: Cytotoxic activity IC50, SK-MEL
[24] = read-out: Cytotoxic activity IC50, SK-OV-3
[25] = P. falciparum D6, read-out: Chloroquine-Sensitive (D6)-Strain IC50
[26] = P. falciparum D6, read-out: Chloroquine-Sensitive (D6)-Strain IC50 (ng/mL)

Row | SMILES | Chloroquine-Resistant (W2)-Strain S. I. [2] | Chloroquine-Sensitive (D6)-Strain S. I. [3] | IC50 [2, 16] [nM] | IC50 [2, 17] [ng/mL] | IC50 [5, 19] [µg/mL] | Phytotoxic activity, Lettuce (ranking) [6] | Phytotoxic activity, Bentgrass (ranking) [7] | IC50 [8] [µM] | IC50 [9, 21] [µM] | IC50 [9, 22] [µM] | IC50 [9, 23] [µM] | IC50 [9, 24] [µM] | IC50 [3, 25] [nM] | IC50 [3, 26] [ng/mL] | Toxicity in animal models at therapeutic doses [10] | further results
1 | C[C@@H]1CC[C@H]2[C@@H](C)C(=O)O[C@@H]3O[C@@]4(C)CC[C@@H]1[C@]32OO4 [Artemisinin, reference compound] | >1586.6 | >850 | – | – | – | – | – | – | – | – | – | – | – | – | – | Cytotoxicity to Vero Cells IC50 [1]: NC (not cytotoxic at the highest concentration tested (4760 ng/mL))
2 | CCN(CC)CCCC(C)Nc1ccnc2cc(Cl)ccc12 (stereo not drawn) [Chloroquine, reference compound] | – | – | 310 | 160 | – | – | – | – | – | – | – | – | – | – | – | Cytotoxicity to Vero Cells IC50 [1]: NC (not cytotoxic at the highest concentration tested (4760 ng/mL)); Cure (mice without parasitemia till day 28 post-infection) [4, 18]: 2/5; MST (mean survival time) [4, 18]: 28 days; Survival (animals that survived day 28/total animals in group) [4, 18]: 5/5; Day of Death (post infection) [4, 18]: 28/28/28/28/28; % Parasitemia Suppression Day 5 [4, 18]: 100%; % Parasitemia Suppression Day 7 [4, 18]: 100%; IC50 ([3]; D6, read-out: Chloroquine-Sensitive (D6)-Strain IC50): 30 nM; IC50 ([3]; D6, read-out: Chloroquine-Sensitive (D6)-Strain IC50 (ng/mL)): 16 ng/mL
3 | CC(=O)OC1C2OC2C(C)(O)C(=O)C(C)CC=CC2C(O)C(C)=C(C)C3C(Cc4ccccc4)NC(=O)C213 [Compound 1, (3S,4R,7S,8S,9R,16S,18R,19R,20S,21S)-19,20-epoxycytochalasin C] | >170 | >128.6 | 50 | 28 | > 4.76 | 3 | 2 | > 10 | > 10 | > 10 | 8.02 | > 10 | 70 | 37 | – | IC50 [5, 20]: > 4.76 µg/mL; MST (mean survival time) [4, 18]: 5.2 days; Survival (animals that survived day 28/total animals in group) [4, 18]: 0/5; Day of Death (post infection) [4, 18]: 17/5/3/1/0; % Parasitemia Suppression Day 5 [4, 18]: 33.9%; % Parasitemia Suppression Day 7 [4, 18]: 71.4%; Animals that died due to drug induced toxicity ([4]; oral, 100 mg/kg/day for 3 days): Three out of 5
4 | C=C1C(C)C2C(Cc3ccccc3)NC(=O)C23C(C=CCC(C)C(=O)C(C)(O)C2OC2C3OC(C)=O)C1O [Compound 2, (3S,4R,5S,7S,8S,9R,16S,18R,19R,20S,21S)-19,20-epoxycytochalasin D] | >238 | >216.3 | 40 | 20 | > 4.76 | 3 | 3 | 8.4 | 7.84 | > 10 | > 10 | > 10 | 40 | 22 | – | IC50 [5, 20]: > 4.76 µg/mL
5 | CC(=O)OC1C2OC2C(C)C(=O)C(C)CC=CC2C(O)C(C)=C(C)C3C(Cc4ccccc4)NC(=O)C213 [Compound 3, (3S,4R,7S,8S,9R,16(S),18S,19S,20R,21S)-18-deoxy-19,20-epoxycytochalasin C] | >47.6 | >17 | 190 | 100 | > 4.76 | 3 | 4 | > 10 | 6.89 | > 10 | > 10 | > 10 | 560 | 280 | – | –
6 | C=C1[C@@H](C)[C@H]2[C@H](Cc3ccccc3)NC(=O)[C@]23OC(=O)/C=C/[C@H](O)CCC[C@@H](C)C/C=C/[C@H]3[C@@H]1O [Cytochalasin B] | – | – | – | – | – | – | – | – | – | – | – | – | – | – | no toxicity | –
7 | C=C1[C@@H](C)[C@H]2[C@H](Cc3ccccc3)NC(=O)[C@]23[C@H](OC(C)=O)/C=C/[C@@](C)(O)C(=O)[C@@H](C)C/C=C/[C@H]3[C@@H]1O [Cytochalasin D] | – | – | – | – | – | – | – | – | – | – | – | – | – | – | no toxicity | –
8 | C[C@H]1C/C=C/[C@H]2[C@@H]3O[C@]3(C)[C@@H](C)[C@H]3[C@H](Cc4ccccc4)NC(=O)[C@]32OC(=O)O/C=C/[C@@](C)(O)C1=O [Cytochalasin E] | – | – | – | – | – | – | – | – | – | – | – | – | – | – | no toxicity | –
9 | COc1cccc2c1C(=O)c1c(O)c3c(c(O)c1C2=O)C[C@@](O)(C(=O)CO)C[C@@H]3O[C@H]1C[C@H](N)[C@H](O)[C@H](C)O1 [Doxorubicin, reference compound] | – | – | – | – | – | – | – | – | – | – | – | – | – | – | – | IC50 [11]: 1280 nM; IC50 [12]: 1470 nM; IC50 [13]: 2120 nM; IC50 [14]: 1830 nM; IC50 [15]: 1290 nM
